Active and inactive are the calls of the source.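 The calls were made as follows: active = at 63 nM, GSTO1 inhibition of at least 80% or band labeling of at least 80% relative to 1 µM; inactive = the rest.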

Data on two compounds can be found in PubChem BioAssay AID463101 (The Scripps Research Institute Molecular Screening Center, 2010).

The target in the assay is Glutathione S-transferase omega-1 (Homo sapiens) (UniProt P78417). As to the kind of experiment: GSTO1 inhibition versus direct click labeling – cell lysate, MDA-MB-435 proteome, click chemistry, set 2, mechanism study for GSTO1 inhibitor project, late-stage follow-up (AID 463101). The following applies: MDA-MB-435 soluble proteome, gel ABPP fluorescence; for outcome / labeling: direct click chemistry labeling assay; for labeling: click chemistry direct labeling series, at 0.25 µM, stronger effect = higher value; for inhibition: in situ competitive ABPP, probe SE-Rh, at 1 µM (top of the series).
Glutathione S-transferase omega-1 (Homo sapiens), sequence (P78417 whole entry, looked up): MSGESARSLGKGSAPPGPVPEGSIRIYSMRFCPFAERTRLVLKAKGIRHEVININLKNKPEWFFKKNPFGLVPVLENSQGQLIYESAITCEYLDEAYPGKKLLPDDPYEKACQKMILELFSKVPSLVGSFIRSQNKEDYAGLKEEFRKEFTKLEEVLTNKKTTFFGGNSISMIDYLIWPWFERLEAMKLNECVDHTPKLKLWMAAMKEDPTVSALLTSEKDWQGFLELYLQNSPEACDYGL

Take `C#CCN(CCCN(C(=O)CCl)c1ccc([N+](=O)[O-])cc1)C(=O)C(F)(F)F`: the outcome was active; the labeling came to 94%; the inhibition – broadly, the drop in the measured response relative to a control, in per cent – is 100%.
In the case of `C#CCCC(=O)NCCCN(C(=O)CCl)c1ccc([N+](=O)[O-])cc1`, the result was inactive, the labeling was 77% and the inhibition was 100% (inactive).
